{"source": "patent US20240058288A1", "about": "“DRUG COCKTAIL FOR TREATMENT OF PARKINSON'S DISEASE, LEWY BODY DISEASE AND MULTIPLE SYSTEM ATROPHY” (ALETA NEUROSCIENCE, LLC, priority 2021, published 2024)", "key": {"IL-6": {"system": "IL-6", "assay": "LPS/ATP-induced IL-6 secretion by human microglia cells (Luminex)", "format": "cell-based", "conditions": "for concentration of IL-6: as compared with […] distilled water in presence of LPS and ATP", "description": "(§1) In addition to the studies discussed above assessing activity of combinations of drugs on MPP+-induced neurodegeneration toxicity on human dopaminergic neurons and measuring neuronal growth and neurite branching, we also assessed combinations of drugs in reducing lipopolysaccharide (LPS, from E. coli)-induced neuroinflammation.\n(§2) Lipopolysaccharides are important outer membrane components of gram-negative bacteria such as E. coli and salmonella. They are large amphipathic glycoconjugates that typically consist of a lipid domain (hydrophobic) attached to a core oligosaccharide and a distal polysaccharide. LPS binds to Toll-like receptor 4 (TLR4) and activates microglia (51) which in turn increases secretion of pro-inflammatory cytokines such as interleukin-6 (IL-6), tumor necrosis factor-α (TNF-α), and CXCL1/GROα.\n(§3) Microglia cells were obtained from an iCell® Microglia kit, 01279 (Catalogue N° R1131) from FUJIFILM Cellular Dynamics. We followed the manufacturer's protocol for activation of the microglial cells with LPS/ATP to subsequently measure the effect of the study drugs on pro-inflammatory cytokines IL-6, TNF-α and CXCL1/GROα.\n(§4) All cell culture procedures were performed in aseptic conditions, under a laminar flow hood. Microglia were thawed and cultured following the provider's instructions. The microglia were plated at 50,000 cells per well of a Corning Primaria 96 well plate (Ref N° 353872) in 100 μL of growth medium. Cells were incubated at 37° C./5% CO2 in a humidified cell culture incubator.\n(§5) Three days after cell plating, the test or reference substances (25 μL of solutions at 5×) were applied 1 hour before LPS and ATP stimulation.\n(§6) One hour later, 12.5 μL of test or reference substances were added again at 2× concentrated followed by 12.5 μL of LPS at 12× concentration. Fifty microliters of ATP were introduced at 4× concentration, 5 h 30 min after incubation with LPS.\n(§7) Six hours after LPS incubation, the supernatant of each well was collected and centrifugated at 1000 g for 10 minutes to remove the cells and debris.\n(§8) Fifty microliters of supernatant from NT and LPS+ATP-treated wells were used to determine cytokine secretion (IL-6, TNF-α, CXCL1/GROα) by Luminex platform according to the provider's instructions. Samples were diluted prior to the assay to fit within the standard range if needed. Three wells were tested per each condition (Table 10). Cytokines levels in the supernatant were expressed in pg/mL. The data was analyzed using a One-Way ANOVA followed by Bonferroni test."}, "TNF-α": {"system": "TNF-α", "assay": "LPS/ATP-induced TNF-α secretion by human microglia cells (Luminex)", "format": "cell-based", "conditions": "as compared with […] distilled water in presence of LPS and ATP", "description": "as §1, §2, §3, §4, §5, §6, §7, §8"}, "CXCL1/GROα": {"system": "CXCL1/GROα", "assay": "LPS/ATP-induced CXCL1/GROα secretion by human microglia cells (Luminex)", "format": "cell-based", "conditions": "as compared with […] distilled water in presence of LPS and ATP", "description": "as §1, §2, §3, §4, §5, §6, §7, §8"}, "IL-1β": {"system": "IL-1β", "assay": "LPS/ATP-induced IL-1β in human microglia cells", "format": "cell-based", "conditions": "as compared with […] distilled water in presence of LPS and ATP"}, "[1]": {"system": "human dopaminergic neurons (iCell DopaNeurons)", "assay": "MPP+-induced neurotoxicity: neurite outgrowth (neurite length, branch points) of iCell DopaNeurons, Incucyte", "format": "cell-based", "conditions": "MPP+ 100 μM; for Neurite length data, plate 1, Mean: Table 6.1 (FIG. 6A); for Neurite length data, plate 1, Mean / Neurite Branching Data, Plate 1, Mean ± S.D.: followed 72 hours, PCI 30 μM; for Neurite Branching Data, Plate 1, Mean ± S.D.: Table 7.1 (FIG. 6B)", "description": "(§9) We conducted an in vitro study of the drugs in Table 1 to evaluate the neuroprotective effects of 44 conditions of treatment (Table 2, experiments 1-41; 51-53) against MPP+-induced neurodegeneration toxicity on human dopaminergic neurons (iCell® DopaNeurons: iPS cell-derived human midbrain floorplate dopaminergic neurons). Further combinations (Table 2, experiments 42-50 and Table 3) are also disclosed.\niCell DOPA neurons are neural floor plate-derived midbrain dopaminergic neurons generated from human induced pluripotent stem cells (iPSCs). Dopaminergic neurons, specifically those located in the floor plate-derived midbrain are implicated in neurological disorders such as Parkinson's disease, MSA and DLBD among others. Thus iCell DopaNeurons provide a highly relevant in vitro model to investigate these types of pathologies (42, 43). The iCellDopa neurons were supplied from FUJIFILM Cellular Dynamics.\n(§10) Three different measurements were made in the experiments. 1. Neurite length in mm is a measure of increase in dendrite length of neurons. […] 2. neurite branching is measure of dendrite branching. […] 3. Cytolysis of the cells is a measure of cell death. […] Experimental conditions were measured relative to the results of healthy cells in the studies.\n(§11) Procedure. iCell DOPA neurons were thawed and cultured following the provider's instructions in Brainphys medium+provided supplements+1% N2 supplement (Stemcell Technologies)+penicillin/streptomycin+Laminin. They were plated at 20000 cells per well of a 384 well plate (pre-coated with poly-D-lysine and Laminin) in 70 μL of growth medium. Cells were incubated at 37° C./5% CO2 in a humidified cell culture incubator. Half of the culture medium was changed twice a week.\n(§12) MPP+-induced neurotoxicity: 24 hours after neuronal plating, half of the medium was removed and the test compounds were applied with MPP+ treatment, both concentrated at 4×, were added to the wells. For each condition, six aliquots were added, corresponding to columns A-F in Table 2. Except for the NT/NT row, in each row, either the compound indicated dissolved in its vehicle noted in Table 1 was added, or only a vehicle was added as indicated. Column F is an indicator of whether MPP+ was added. If not, only the medium was added.\n(§13) For the evaluation of conditions 1-28, Neurite outgrowth was followed for subsequent 48 hours using an Incucyte Zoom platform with one phase contrast image every 4 hours, using a 20× objective. After 48 hours, the medium containing test compounds and MPP+ was removed and replaced by fresh medium containing a fluorescent cytolysis marker (red fluorescence) and a live cell marker (green fluorescence). For the evaluation of conditions 29-53, Neurite outgrowth was followed similarly for subsequent 72 hours after MPP+ was added.\nEach condition 1-41 and 51-53 was repeated in 8 wells of a 384 well plate, that is, each test condition studied in Table 2 was repeated eight times. NT/NT were cells in the standard medium only. Control/NT are the cells in the vehicle (as described above), with and without MPP+.\nAssay endpoints and data analysis. Phase contrast images were analyzed at each time point to determine the neurite length and number of branch points per mm^2. Kinetic data was plotted and kinetics were normalized by subtracting the value of the first data point (at time of treatment), allowing to measure changes in neurite outgrowth only from the onset of the treatment, starting at zero. Area Under Curve (AUC) of kinetic data was obtained and used for plotting compound's effects and perform statistical analyzes.\n(§14) Statistical analysis. We used one-way ANOVA followed by Bonferroni's multiple comparisons test."}, "[2]": {"system": "human dopaminergic neurons (iCell DopaNeurons)", "assay": "MPP+-induced neurotoxicity: cytolysis of iCell DopaNeurons", "format": "cell-based", "conditions": "MPP+ 100 μM; Table 8.1 (FIG. 6C); PCI 30 μM", "description": "as §9, §10, §11, §12, §13\nData was normalized to control conditions as there is basal cytolysis in the cell culture after thawing.\nFluorescently immuno-stained cells were imaged on a high content imaging platform. Individual segmentation of cells was performed by image analysis of the MAP2 and NeuN staining. The number of neurons and the neurite length were measured. The percentage of cytolyzed cells was also calculated.\nas §14"}, "PrP": {"system": "PrP", "conditions": "cell-free aggregation assays, chronically and acutely infected cell cultures; cited from earlier work"}, "[3]": {"conditions": "pre-treatment 50 mg/kg for 3 days; cited from earlier work"}}}
{"smiles": "CCOC(=O)C1=CCCC[C@H]1S(=O)(=O)Nc1ccc(F)cc1Cl", "note": "[TAK-242]", "values": [{"measurement": "concentration of IL-6", "setting": "IL-6", "result": "significantly decreased"}, {"measurement": "concentration of TNF-α", "setting": "TNF-α", "result": "significantly decreased"}, {"measurement": "concentration of GROα", "setting": "CXCL1/GROα", "result": "significantly decreased"}, {"measurement": "concentration of IL-1β", "setting": "IL-1β", "result": "significantly decreased"}]}
{"smiles": "CC(C)(O)c1coc(S(=O)(=O)NC(=O)Nc2c3c(cc4c2CCC4)CCC3)c1", "note": "[MCC950]", "values": [{"measurement": "concentration of IL-6", "setting": "IL-6", "result": "significantly decreased"}, {"measurement": "concentration of TNF-α", "setting": "TNF-α", "result": "significantly decreased"}, {"measurement": "concentration of IL-1β", "setting": "IL-1β", "result": "significantly decreased"}]}
{"smiles": "COc1cc2nc(N3CCN(C(=O)C4CCCO4)CC3)nc(N)c2cc1OC", "note": "(stereo not shown) [TZ, Terazosin]", "values": [{"measurement": "Neurite length data, plate 1, Mean", "setting": "[1]", "result": 1102.2, "unit": "mm/mm^2"}, {"measurement": "Neurite Branching Data, Plate 1, Mean ± S.D.", "setting": "[1]", "result": "31244.4 ± 12478.9", "unit": "per mm^2"}, {"measurement": "effects on neurite outgrowth", "setting": "[1]; vs MPP+ alone", "result": "no significant effects"}, {"measurement": "Cytolysis, %, Plate 1, Mean ± S.D.", "setting": "[2]", "result": "72.78 ± 2.29", "unit": "%"}]}
{"smiles": "C[C@H](CCC(=O)NCCS(=O)(=O)O)[C@H]1CC[C@H]2[C@@H]3[C@@H](O)C[C@@H]4C[C@H](O)CC[C@]4(C)[C@H]3CC[C@]12C", "note": "[TUDCA, tauroursodeoxycholic acid]", "values": [{"measurement": "Neurite length data, plate 1, Mean", "setting": "[1]", "result": 1825.9, "unit": "mm/mm^2"}, {"measurement": "Neurite Branching Data, Plate 1, Mean ± S.D.", "setting": "[1]", "result": "58836.3 ± 9596.4", "unit": "per mm^2"}, {"measurement": "neurite length increased as compared with MPP+ alone", "setting": "[1]; conditions 29-53, followed 72 hours (FIG. 6A, 7A)", "result": 43, "unit": "%"}, {"measurement": "number of branches increased as compared with MPP+ alone", "setting": "[1]; conditions 29-53, followed 72 hours (FIG. 6B, 7B)", "result": 60, "unit": "%"}, {"measurement": "Cytolysis, %, Plate 1, Mean ± S.D.", "setting": "[2]", "result": "70.69 ± 2.02", "unit": "%"}, {"measurement": "anti-inflammatory effect on activated microglia, all three cytokines", "setting": "IL-6; LPS and ATP, IL-6, TNF-α, GROα together (FIG. 8, 9, 10)", "result": "Anti-inflammatory effects of the individual drugs were observed"}, {"measurement": "PrP conversion", "setting": "PrP", "result": "substantially reduced PrP conversion"}, {"measurement": "neurodegeneration of the nigral dopaminergic neurons caused by MPTP", "setting": "[3]", "result": "significantly reduced neurodegeneration"}]}
